The results in this text go back to ChEMBL document CHEMBL4706656, “Ifenprodil Stereoisomers: Synthesis, Absolute Configuration, and Correlation with Biological Activity” (J Med Chem, 2021).

SMILES strings stand for the structures.

Sequence of 5-hydroxytryptamine receptor 6 (P50406 whole entry): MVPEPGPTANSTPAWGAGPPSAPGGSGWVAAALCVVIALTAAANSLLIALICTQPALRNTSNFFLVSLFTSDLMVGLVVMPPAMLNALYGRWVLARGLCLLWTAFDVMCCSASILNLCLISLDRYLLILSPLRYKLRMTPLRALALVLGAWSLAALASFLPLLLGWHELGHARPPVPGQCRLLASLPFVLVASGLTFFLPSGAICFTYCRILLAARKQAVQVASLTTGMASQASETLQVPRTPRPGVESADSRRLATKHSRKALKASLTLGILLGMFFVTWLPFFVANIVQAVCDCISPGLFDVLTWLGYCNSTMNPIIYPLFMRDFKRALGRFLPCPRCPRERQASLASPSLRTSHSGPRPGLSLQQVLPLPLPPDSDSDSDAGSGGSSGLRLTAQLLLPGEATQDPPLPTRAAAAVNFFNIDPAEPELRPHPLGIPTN

In the first assay the target is T1, Alpha-1A adrenergic receptor (Homo sapiens, UniProt P35348).
T1 sequence (P35348 whole entry): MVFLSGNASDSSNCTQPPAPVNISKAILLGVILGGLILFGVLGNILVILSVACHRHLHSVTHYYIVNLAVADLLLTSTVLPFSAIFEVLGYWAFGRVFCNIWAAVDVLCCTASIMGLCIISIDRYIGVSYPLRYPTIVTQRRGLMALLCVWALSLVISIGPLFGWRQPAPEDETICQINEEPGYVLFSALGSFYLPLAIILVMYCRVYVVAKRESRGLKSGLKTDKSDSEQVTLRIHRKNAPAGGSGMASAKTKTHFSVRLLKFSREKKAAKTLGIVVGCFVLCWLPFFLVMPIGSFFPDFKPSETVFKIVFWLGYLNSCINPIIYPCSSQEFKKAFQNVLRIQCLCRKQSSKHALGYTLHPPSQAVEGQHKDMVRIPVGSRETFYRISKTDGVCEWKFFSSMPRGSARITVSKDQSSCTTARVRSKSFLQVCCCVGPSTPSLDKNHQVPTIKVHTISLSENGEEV
In words: Displacement of [3H]prazosin from alpha-1A adrenergic receptor (unknown origin).
In the case of `C[C@@H]([C@@H](O)c1ccc(O)cc1)N1CCC(Cc2ccccc2)CC1` [(S)-IFENPRODIL], affinity was put at a Ki of 0.53 µM.
As to `C[C@@H]([C@H](O)c1ccc(O)cc1)N1CCC(Cc2ccccc2)CC1` [(R,S)-IFENPRODIL], the Ki came to 0.14 µM.
Take `C[C@H]([C@@H](O)c1ccc(O)cc1)N1CCC(Cc2ccccc2)CC1` [(S,R)-IFENPRODIL]: the Ki is 0.027 µM.
`C[C@H]([C@H](O)c1ccc(O)cc1)N1CCC(Cc2ccccc2)CC1`: the Ki was determined as 0.37 µM.

The target of a further assay is 5-hydroxytryptamine receptor 2B (Homo sapiens, UniProt P41595). In words: Binding affinity to 5-HT2B receptor (unknown origin) incubated for 1 hr by radioligand binding assay.
Sequence of 5-hydroxytryptamine receptor 2B (P41595 whole entry): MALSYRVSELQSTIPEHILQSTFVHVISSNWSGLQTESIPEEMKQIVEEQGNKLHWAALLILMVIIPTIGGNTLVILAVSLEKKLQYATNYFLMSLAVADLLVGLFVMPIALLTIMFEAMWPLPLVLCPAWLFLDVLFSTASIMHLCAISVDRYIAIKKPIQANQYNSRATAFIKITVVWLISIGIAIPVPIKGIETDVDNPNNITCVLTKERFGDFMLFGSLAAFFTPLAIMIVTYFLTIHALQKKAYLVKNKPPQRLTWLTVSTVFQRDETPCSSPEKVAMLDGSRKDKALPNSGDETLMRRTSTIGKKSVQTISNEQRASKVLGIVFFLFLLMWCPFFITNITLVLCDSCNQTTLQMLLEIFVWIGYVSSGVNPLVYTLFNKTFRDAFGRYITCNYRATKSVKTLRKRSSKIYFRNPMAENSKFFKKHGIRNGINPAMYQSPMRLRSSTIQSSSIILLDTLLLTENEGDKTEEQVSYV
With `C[C@@H]([C@@H](O)c1ccc(O)cc1)N1CCC(Cc2ccccc2)CC1` [(S)-IFENPRODIL], the Ki is above 1 µM.
`C[C@@H]([C@H](O)c1ccc(O)cc1)N1CCC(Cc2ccccc2)CC1` [(R,S)-IFENPRODIL] gave a Ki of 0.095 µM.
The compound `C[C@H]([C@@H](O)c1ccc(O)cc1)N1CCC(Cc2ccccc2)CC1` [(S,R)-IFENPRODIL] returned a Ki of 0.066 µM.
`C[C@H]([C@H](O)c1ccc(O)cc1)N1CCC(Cc2ccccc2)CC1` yielded a Ki of 0.708 µM.

The target in the next assay is T2, 5-hydroxytryptamine receptor 1A (Homo sapiens, UniProt P08908).
T2 sequence (P08908 whole entry): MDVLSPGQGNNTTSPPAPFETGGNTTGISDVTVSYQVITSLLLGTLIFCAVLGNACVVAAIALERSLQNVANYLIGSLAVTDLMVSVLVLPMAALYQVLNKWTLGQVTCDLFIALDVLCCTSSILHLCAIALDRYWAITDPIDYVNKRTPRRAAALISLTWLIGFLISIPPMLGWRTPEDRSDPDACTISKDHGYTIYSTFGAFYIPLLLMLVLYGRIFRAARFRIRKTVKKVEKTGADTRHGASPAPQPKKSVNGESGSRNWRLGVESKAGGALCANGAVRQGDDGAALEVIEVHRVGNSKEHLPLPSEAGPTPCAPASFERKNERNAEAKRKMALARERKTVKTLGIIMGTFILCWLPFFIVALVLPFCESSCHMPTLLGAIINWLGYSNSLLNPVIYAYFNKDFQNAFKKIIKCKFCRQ
In words: Displacement of [3H]-8-OH-DPAT from human 5-HT1A receptor expressed in HEK293 cells incubated for 1 hr by radioligand binding assay. In kind it is cell-based.
`C[C@@H]([C@@H](O)c1ccc(O)cc1)N1CCC(Cc2ccccc2)CC1` [(S)-IFENPRODIL]: the Ki was above 1 µM.
With `C[C@@H]([C@H](O)c1ccc(O)cc1)N1CCC(Cc2ccccc2)CC1` [(R,S)-IFENPRODIL], the Ki is above 1 µM.
Take `C[C@H]([C@@H](O)c1ccc(O)cc1)N1CCC(Cc2ccccc2)CC1` [(S,R)-IFENPRODIL]: the affinity corresponds to a Ki of 0.046 µM.
On the same count and under the same terms, with `C[C@H]([C@H](O)c1ccc(O)cc1)N1CCC(Cc2ccccc2)CC1` the figure was above 1 µM.

A further assay has as its target 5-hydroxytryptamine receptor 6 (Homo sapiens, UniProt P50406). In words: Displacement of [3H]LSD from human 5-HT6 receptor expressed in HEK293 cells incubated for 1 hr by radioligand binding assay. In kind it is cell-based.
Compound `C[C@@H]([C@@H](O)c1ccc(O)cc1)N1CCC(Cc2ccccc2)CC1` [(S)-IFENPRODIL] registered a Ki above 10 µM.
`C[C@@H]([C@H](O)c1ccc(O)cc1)N1CCC(Cc2ccccc2)CC1` [(R,S)-IFENPRODIL]: the Ki is above 1 µM.
Same read-out and setting: the same measure for `C[C@H]([C@@H](O)c1ccc(O)cc1)N1CCC(Cc2ccccc2)CC1` [(S,R)-IFENPRODIL]: above 1 µM; for `C[C@H]([C@H](O)c1ccc(O)cc1)N1CCC(Cc2ccccc2)CC1`: above 10 µM.

For another assay, the target named is 5-hydroxytryptamine receptor 2A (Homo sapiens, UniProt P28223). In words: Displacement of [3H]ketanserin from human 5-HT2A receptor expressed in CHO-K1 cells incubated for 1 hr by radioligand binding assay. In kind it is cell-based. (In a radioligand displacement assay an active substance lowers the binding of a labelled ligand.)
Sequence of 5-hydroxytryptamine receptor 2A (P28223 whole entry): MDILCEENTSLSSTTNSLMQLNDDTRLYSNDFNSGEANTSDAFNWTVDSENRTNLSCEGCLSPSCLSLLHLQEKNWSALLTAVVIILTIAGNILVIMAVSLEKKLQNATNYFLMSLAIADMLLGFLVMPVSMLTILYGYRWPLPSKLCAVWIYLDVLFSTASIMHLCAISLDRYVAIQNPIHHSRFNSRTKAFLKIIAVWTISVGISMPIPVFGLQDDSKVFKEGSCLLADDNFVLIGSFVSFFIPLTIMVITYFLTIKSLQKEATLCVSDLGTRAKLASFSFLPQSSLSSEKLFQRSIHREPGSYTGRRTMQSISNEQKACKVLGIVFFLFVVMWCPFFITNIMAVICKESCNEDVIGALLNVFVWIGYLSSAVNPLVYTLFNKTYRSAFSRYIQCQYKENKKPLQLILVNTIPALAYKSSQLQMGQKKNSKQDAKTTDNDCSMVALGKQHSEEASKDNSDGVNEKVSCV
As for `C[C@@H]([C@@H](O)c1ccc(O)cc1)N1CCC(Cc2ccccc2)CC1` [(S)-IFENPRODIL], the affinity corresponds to a Ki of 0.369 µM.
Turning to `C[C@@H]([C@H](O)c1ccc(O)cc1)N1CCC(Cc2ccccc2)CC1` [(R,S)-IFENPRODIL], the Ki stood at 0.421 µM.
In the case of `C[C@H]([C@@H](O)c1ccc(O)cc1)N1CCC(Cc2ccccc2)CC1` [(S,R)-IFENPRODIL], affinity was put at a Ki of 0.51 µM.
Consider `C[C@H]([C@H](O)c1ccc(O)cc1)N1CCC(Cc2ccccc2)CC1`, for which the Ki came to 0.338 µM.

The target in a further assay is T3, Alpha-2A adrenergic receptor (Homo sapiens, UniProt P08913).
T3 sequence (P08913 whole entry): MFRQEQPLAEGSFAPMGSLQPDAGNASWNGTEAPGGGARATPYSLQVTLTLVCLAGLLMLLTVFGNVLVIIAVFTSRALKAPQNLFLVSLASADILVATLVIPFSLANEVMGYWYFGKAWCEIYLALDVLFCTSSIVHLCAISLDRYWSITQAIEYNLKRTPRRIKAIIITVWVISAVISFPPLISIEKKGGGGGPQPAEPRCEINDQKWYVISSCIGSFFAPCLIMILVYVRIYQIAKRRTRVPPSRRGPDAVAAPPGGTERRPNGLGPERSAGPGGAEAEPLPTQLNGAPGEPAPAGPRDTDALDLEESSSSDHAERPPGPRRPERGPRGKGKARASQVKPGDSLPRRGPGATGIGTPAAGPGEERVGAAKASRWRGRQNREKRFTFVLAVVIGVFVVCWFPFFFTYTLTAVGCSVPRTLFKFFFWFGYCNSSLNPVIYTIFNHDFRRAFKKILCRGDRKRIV
Nature of the assay: Displacement of [3H]RX821002 from alpha-2A adrenergic receptor (unknown origin).
The compound `C[C@@H]([C@@H](O)c1ccc(O)cc1)N1CCC(Cc2ccccc2)CC1` [(S)-IFENPRODIL] came in with a Ki of 6.1 µM.
In turn, `C[C@@H]([C@H](O)c1ccc(O)cc1)N1CCC(Cc2ccccc2)CC1` [(R,S)-IFENPRODIL] showed a Ki of 1.6 µM.
In turn, `C[C@H]([C@@H](O)c1ccc(O)cc1)N1CCC(Cc2ccccc2)CC1` [(S,R)-IFENPRODIL] gave a Ki of 2.3 µM.
`C[C@H]([C@H](O)c1ccc(O)cc1)N1CCC(Cc2ccccc2)CC1` had a Ki of 5.5 µM.

In the next assay the target is 5-hydroxytryptamine receptor 7 (Homo sapiens, UniProt P34969). In words: Displacement of [3H]-5-CT from human 5-HT7B receptor expressed in HEK293 cells incubated for 1 hr by radioligand binding assay. In kind it is cell-based.
Sequence of 5-hydroxytryptamine receptor 7 (P34969 whole entry): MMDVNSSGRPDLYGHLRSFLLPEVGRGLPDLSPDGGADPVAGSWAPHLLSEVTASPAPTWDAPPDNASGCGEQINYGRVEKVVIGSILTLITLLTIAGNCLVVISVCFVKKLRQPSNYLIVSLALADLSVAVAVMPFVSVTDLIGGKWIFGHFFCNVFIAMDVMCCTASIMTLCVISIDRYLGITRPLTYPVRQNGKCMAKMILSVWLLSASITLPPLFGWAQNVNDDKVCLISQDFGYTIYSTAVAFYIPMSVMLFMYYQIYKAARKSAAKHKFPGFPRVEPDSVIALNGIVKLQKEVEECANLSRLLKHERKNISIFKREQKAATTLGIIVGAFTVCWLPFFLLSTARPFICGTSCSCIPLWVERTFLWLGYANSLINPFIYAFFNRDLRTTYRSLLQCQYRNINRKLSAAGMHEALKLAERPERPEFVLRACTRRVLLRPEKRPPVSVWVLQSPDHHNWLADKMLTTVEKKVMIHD
On to `C[C@@H]([C@@H](O)c1ccc(O)cc1)N1CCC(Cc2ccccc2)CC1` [(S)-IFENPRODIL], for which the Ki was above 10 µM.
In turn, `C[C@@H]([C@H](O)c1ccc(O)cc1)N1CCC(Cc2ccccc2)CC1` [(R,S)-IFENPRODIL] came in with a Ki of 0.513 µM.
In the case of `C[C@H]([C@@H](O)c1ccc(O)cc1)N1CCC(Cc2ccccc2)CC1` [(S,R)-IFENPRODIL], the Ki is above 10 µM.
For the compound `C[C@H]([C@H](O)c1ccc(O)cc1)N1CCC(Cc2ccccc2)CC1`, the Ki was above 10 µM.

For the next assay, the target named is T4, 5-hydroxytryptamine receptor 2C (Homo sapiens, UniProt P28335).
T4 sequence (P28335 whole entry): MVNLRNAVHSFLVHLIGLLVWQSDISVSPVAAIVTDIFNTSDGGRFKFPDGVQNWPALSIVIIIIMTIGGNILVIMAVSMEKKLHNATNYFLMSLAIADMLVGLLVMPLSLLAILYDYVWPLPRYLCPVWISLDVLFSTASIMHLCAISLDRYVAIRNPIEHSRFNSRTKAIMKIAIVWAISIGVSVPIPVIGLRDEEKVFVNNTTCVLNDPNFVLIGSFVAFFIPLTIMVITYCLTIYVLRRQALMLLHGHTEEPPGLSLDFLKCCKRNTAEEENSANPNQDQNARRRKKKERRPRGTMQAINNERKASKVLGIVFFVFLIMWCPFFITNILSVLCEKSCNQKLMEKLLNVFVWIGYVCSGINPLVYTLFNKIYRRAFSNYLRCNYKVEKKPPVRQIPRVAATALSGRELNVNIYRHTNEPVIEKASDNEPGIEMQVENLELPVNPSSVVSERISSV
Nature of the assay: Binding affinity to 5-HT2C receptor (unknown origin) incubated for 1 hr by radioligand binding assay.
The compound `C[C@@H]([C@@H](O)c1ccc(O)cc1)N1CCC(Cc2ccccc2)CC1` [(S)-IFENPRODIL] registered a Ki above 10 µM.
In turn, `C[C@@H]([C@H](O)c1ccc(O)cc1)N1CCC(Cc2ccccc2)CC1` [(R,S)-IFENPRODIL] gave an inhibition constant (Ki) of 0.748 µM.
On the same count and under the same terms, the same measure for `C[C@H]([C@@H](O)c1ccc(O)cc1)N1CCC(Cc2ccccc2)CC1` [(S,R)-IFENPRODIL]: above 10 µM.
On the same count and under the same terms, with `C[C@H]([C@H](O)c1ccc(O)cc1)N1CCC(Cc2ccccc2)CC1` the figure was above 10 µM.

The Ki is the equilibrium dissociation constant of an inhibitor or competing ligand from its target. A low value points to higher affinity.
